Laboratory results as given in patent US20060276528A1, “Novel benzo-fused heteroaryl sulfamide derivatives useful as anticonvulsant agents” (priority 2004, published 2006).

Experiments:
[1] = tested on: MES-induced seizure (full body tonic extension); assay: Maximal Electroshock Test (MES), anticonvulsant activity; type: in vivo, CF-1 male albino mice; conditions: oral; for MES @100 mpk, result in words: mice, time not given; for MES @100 mpk, result in words / MES @100 mpk: (number of mice with full body tonic extension prevented)/(total number of mice tested): 100 mg/kg; for MES @ 300 mpk: (number of mice with full body tonic extension prevented)/(total number of mice tested): 300 mg/kg
Experimental: Anticonvulsant activity was determined using the MES test, run according to the procedure described in detail below. Swinyard E A, Woodhead J H, White H S, Franklin M R. Experimental selection, quantification, and evaluation of anticonvulsants. In Levy R H, et al., eds. Antiepileptic Drugs. 3rd ed. New York: Raven Press, 1989:85-102 CF-1 male albino mice (25-35 g) were fasted for 16 hours before testing. Mice were randomly selected into control and test groups, with the animals dosed with vehicle or test compound, at varying concentrations, respectively. On the study date, at 30 minutes prior to shock, the mice were orally dosed with vehicle (0.5% methylcellulose) or test compound (100-300 mg/kg). Seizures were induced by trans-corneal electric shock using a 60-Hz alternating current, 50 mA, delivered for 0.2 sec. The mice in the test groups were subjected to electrical stimulus at time intervals between 15 minutes and 4 hours following administration of test compound. […] The test was complete when the entire course of the convulsion has been observed (typically, less than 1 minute after electrical stimulation), and the mice were then immediately euthanized by carbon dioxide inhalation. Abolition of the full body tonic extensor component of the seizure was taken as the endpoint of the test. […] The ED50 value of the test compound (calculated when appropriate) was the calculated dose required to block the hind limb tonic-extensor component of the MES-induced seizure in 50% of the rodents tested. A probit analysis was used to calculate the ED50 and 95% fiducial limits (FL). Representative compounds of the present invention were tested according to the procedure described above, with results as listed in Table 6 below. Results are listed as (number of mice with full body tonic extension prevented)/(total number of mice tested) (@ a given time).

carbonic anhydrase = conditions: background statement, figure not given; cited from earlier work

| Structure (SMILES) | MES @100 mpk, result in words [1] | MES @ 300 mpk: (number of mice with full body tonic extension prevented)/(total number of mice tested) ([1]; 0.5 hr after dosing) | MES @ 300 mpk: (number of mice with full body tonic extension prevented)/(total number of mice tested) ([1]; 2 hr after dosing) | MES @ 300 mpk: (number of mice with full body tonic extension prevented)/(total number of mice tested) ([1]; 4 hr after dosing) | MES @100 mpk: (number of mice with full body tonic extension prevented)/(total number of mice tested) ([1]; 0.5 h after dosing) | MES @100 mpk: (number of mice with full body tonic extension prevented)/(total number of mice tested) ([1]; 2 h after dosing) | MES @100 mpk: (number of mice with full body tonic extension prevented)/(total number of mice tested) ([1]; 4 h after dosing) | carbonic anhydrase inhibition (carbonic anhydrase) |
| --- | --- | --- | --- | --- | --- | --- | --- | --- |
| NS(=O)(=O)NCc1csc2ccc(Cl)cc12 [Compound 3, N-[(5-chlorobenzo[b]thien-3-yl)methyl]-sulfamide] | inactive | 0/5 (0.5 hr) | 3/5 (2 hr) | 1/5 (4 hr) | – | – | – | – |
| NS(=O)(=O)NCc1coc2ccccc12 [Compound 6, N-(3-benzofuranylmethyl)-sulfamide] | inactive | 5/5 (0.5 hr) | 0/5 (2 hr) | 0/5 (4 hr) | – | – | – | – |
| NS(=O)(=O)NCc1csc2ccc(F)cc12 [Compound 8, N-[(5-fluorobenzo[b]thien-3-yl)methyl]-sulfamide] | – | – | – | – | 0/5 (0.5 h) | 4/5 (2 h) | 1/5 (4 h) | – |
| Cc1oc2ccccc2c1CNS(N)(=O)=O [Compound 13] | – | – | – | – | 4/5 (0.5 h) | 0/5 (2 h) | 0/5 (4 h) | – |
| NS(=O)(=O)NCc1csc2c(F)cccc12 [Compound 18, N-[(7-fluorobenzo[b]thien-3-yl)methyl]-sulfamide] | – | 0/3 (0.5 hr) | 2/3 (2 hr) | 0/3 (4 hr) | – | – | – | – |
| NS(=O)(=O)NCc1csc2ccc(Br)cc12 [Compound 15, N-[(5-bromobenzo[b]thien-3-yl)methyl]-sulfamide] | – | 0/3 (0.5 hr) | 0/3 (2 hr) | 1/3 (4 hr) | – | – | – | – |
| CC(NS(N)(=O)=O)c1csc2ccccc12 (stereo not shown) [Compound 9, N-(1-benzo[b]thien-3-ylethyl)-sulfamide] | – | – | – | – | 1/5 (0.5 h) | 0/5 (2 h) | 0/5 (4 h) | – |
| NS(=O)(=O)NCc1cccc2ccccc12 [Compound 10, N-(1-naphthalenylmethyl)-sulfamide] | – | – | – | – | 2/5 (0.5 h) | 1/5 (2 h) | 0/5 (4 h) | – |
| NS(=O)(=O)NCc1csc2cccc(Br)c12 [Compound 17, N-[(4-bromobenzo[b]thien-3-yl)methyl]-sulfamide] | – | 0/3 (0.5 hr) | 0/3 (2 hr) | 1/3 (4 hr) | – | – | – | – |
| Cn1cc(CNS(N)(=O)=O)c2ccccc21 [Compound 7, N-[(1-methyl-1H-indol-3-yl)methyl]-sulfamide] | inactive | 5/5 (0.5 hr) | 0/5 (2 hr) | 0/5 (4 hr) | – | – | – | – |
| CC1(C)O[C@@H]2[C@@H](CO[C@@]3(COS(N)(=O)=O)OC(C)(C)O[C@@H]23)O1 [Topiramate] | – | – | – | – | – | – | – | single digit micromolar |
| NS(=O)(=O)NCc1csc2ccccc12 [Compound 1, N-(benzo[b]thien-3-ylmethyl)-sulfamide] | – | – | – | – | 1/5 (0.5 h) | 3/5 (2 h) | 2/5 (4 h) | – |
